Measured values taken from PubChem BioAssay AID330 (DTP/NCI, 2004).
Several values for one entry are separate records, joined by “and”; a condition that tells them apart may be missing. Equal entries are not always repeated. Inconclusive results and toxic doses are left out.

System: P388 leukemia ip, CD2F1 mice, survival T/C
Test: NCI In Vivo Anticancer Drug Screen. Data for tumor model P388 Leukemia (intraperitoneal) in CD2F1 (CDF1) mice
Conditions: endpoint: median survival time, higher = longer survival
Outline: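 Mice carrying the transplanted tumor received test compound or vehicle. Survival was recorded in each group, and the value is the treated-group measurement divided by that of the vehicle-treated control group.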

[1] = dose: 60.0 mg/kg/injection, schedule: Q01DX005 (ip), vehicle: Klucel (hydroxypropylcellulose) (HPC)
[2] = dose: 120.0 mg/kg/injection, schedule: Q01DX005 (ip), vehicle: Klucel (hydroxypropylcellulose) (HPC)
[3] = dose: 12.5 mg/kg/injection, schedule: Q01DX009 (ip), vehicle: Klucel (hydroxypropylcellulose) (HPC)
[4] = dose: 25.0 mg/kg/injection, schedule: Q01DX009 (ip), vehicle: Klucel (hydroxypropylcellulose) (HPC)
[5] = dose: 50.0 mg/kg/injection, schedule: Q01DX009 (ip), vehicle: Klucel (hydroxypropylcellulose) (HPC)
[6] = dose: 50.0 mg/kg/injection, schedule: Q01DX005 (ip), vehicle: saline with Tween-80
[7] = dose: 100.0 mg/kg/injection, schedule: Q01DX005 (ip), vehicle: saline with Tween-80
[8] = dose: 100.0 mg/kg/injection, schedule: Q01DX009 (ip), vehicle: saline with Tween-80
[9] = dose: 200.0 mg/kg/injection, schedule: Q01DX005 (ip), vehicle: saline with Tween-80
[10] = dose: 200.0 mg/kg/injection, schedule: Q01DX009 (ip), vehicle: saline with Tween-80
[11] = dose: 400.0 mg/kg/injection, schedule: Q01DX009 (ip), vehicle: saline with Tween-80
[12] = dose: 25.0 mg/kg/injection, schedule: Q01DX009 (ip), vehicle: saline with Tween-80
[13] = dose: 50.0 mg/kg/injection, schedule: Q01DX009 (ip), vehicle: saline with Tween-80
[14] = dose: 12.5 mg/kg/injection, schedule: Q01DX009 (ip), vehicle: saline with Tween-80
[15] = dose: 50.0 mg/kg/injection, schedule: Q01DX005 (ip), vehicle: Klucel (hydroxypropylcellulose) (HPC)
[16] = dose: 100.0 mg/kg/injection, schedule: Q01DX005 (ip), vehicle: Klucel (hydroxypropylcellulose) (HPC)
[17] = dose: 200.0 mg/kg/injection, schedule: Q01DX005 (ip), vehicle: Klucel (hydroxypropylcellulose) (HPC)

In the case of `Cc1cc2ccccc2nc1-c1ccncc1`, the T/C (dose: 25.0 mg/kg/injection, schedule: Q04DX002 (ip), vehicle: Klucel (hydroxypropylcellulose) (HPC)) was 96 % of control, the T/C (dose: 50.0 mg/kg/injection, schedule: Q04DX002 (ip), vehicle: Klucel (hydroxypropylcellulose) (HPC)) was 96 % of control and the T/C (dose: 100.0 mg/kg/injection, schedule: Q04DX002 (ip), vehicle: Klucel (hydroxypropylcellulose) (HPC)) was 101 % of control. The T/C (dose: 200.0 mg/kg/injection, schedule: Q04DX002 (ip), vehicle: Klucel (hydroxypropylcellulose) (HPC)) was 103 % of control.

`N#C/C(=C/c1ccc(Cl)cc1)C(=O)NC(N)=O` was tested, and the T/C (dose: 100.0 mg/kg/injection, schedule: Q04DX002 (ip), vehicle: saline) was 100 % of control, the T/C (dose: 200.0 mg/kg/injection, schedule: Q04DX002 (ip), vehicle: saline) was 105 % of control and the T/C (dose: 400.0 mg/kg/injection, schedule: Q04DX002 (ip), vehicle: saline) was 107 % of control.

With `COC(=O)/C(=C\Sc1ccccc1)NC(C)=O` the T/C [1] was 100 % of control, the T/C [2] was 98 % of control and the T/C (dose: 240.0 mg/kg/injection, schedule: Q01DX005 (ip), vehicle: Klucel (hydroxypropylcellulose) (HPC)) was 107 % of control.

With `COC(=O)C12OCC34C(CC5C(C)C6=CC(=O)OC6=CC5(C)C3C(O)C1O)OC(=O)C(O)C24` (stereo not given) the T/C (dose: 0.63 mg/kg/injection, schedule: Q01DX005 (ip), vehicle: Klucel (hydroxypropylcellulose) (HPC)) was 150 % of control and the T/C (dose: 1.25 mg/kg/injection, schedule: Q01DX005 (ip), vehicle: Klucel (hydroxypropylcellulose) (HPC)) was 169 % of control.

With `FC(F)(F)c1nnc(-c2ccc3ccccc3c2)nn1` the T/C [3] was 104 % of control, the T/C [4] was 103 % of control and the T/C [5] was 103 % of control and 122 % of control. For the same compound, the T/C (dose: 100.0 mg/kg/injection, schedule: Q01DX009 (ip), vehicle: Klucel (hydroxypropylcellulose) (HPC)) was 105 % of control and 97 % of control and the T/C (dose: 200.0 mg/kg/injection, schedule: Q01DX009 (ip), vehicle: Klucel (hydroxypropylcellulose) (HPC)) was 100 % of control.

For `NCC1CCC(C(=O)O)CC1` (stereo not given), the T/C [6] was 94 % of control, the T/C [7] was 92 % of control and the T/C [8] was 99 % of control. For the same compound, the T/C [9] was 100 % of control, the T/C [10] was 101 % of control and the T/C (dose: 400.0 mg/kg/injection, schedule: Q01DX005 (ip), vehicle: saline with Tween-80) was 103 % of control. The T/C [11] was 100 % of control and the T/C (dose: 800.0 mg/kg/injection, schedule: Q01DX005 (ip), vehicle: saline with Tween-80) was 89 % of control.

`CCOC(=O)c1ccc(N(CCNc2cnc(NC(C)=O)[nH]c2=O)C(C)=O)cc1` was tested, and the T/C [12] was 92 % of control, the T/C [13] was 88 % of control and the T/C [8] was 92 % of control. The T/C [10] was 89 % of control.

In the case of `[Cl][Sn]([c]1cccc2ccccc12)[c]1cccc2ccccc12`, the T/C (dose: 1.56 mg/kg/injection, schedule: Q01DX005 (ip), vehicle: Klucel (hydroxypropylcellulose) (HPC)) was 101 % of control, the T/C (dose: 3.12 mg/kg/injection, schedule: Q01DX005 (ip), vehicle: Klucel (hydroxypropylcellulose) (HPC)) was 120 % of control and the T/C (dose: 6.25 mg/kg/injection, schedule: Q01DX005 (ip), vehicle: Klucel (hydroxypropylcellulose) (HPC)) was 124 % of control. The T/C (dose: 12.5 mg/kg/injection, schedule: Q01DX005 (ip), vehicle: Klucel (hydroxypropylcellulose) (HPC)) was 109 % of control.

`C[C@]12CCC(=O)C=C1CC[C@@H]1[C@@H]2[C@@H](O)C[C@@]2(C)[C@H]1CC[C@]2(O)C(=O)CF` was tested, and the T/C [8] was 100 % of control, the T/C (dose: 100.0 mg/kg/injection, schedule: Q04DX003 (ip), vehicle: saline with Tween-80) was 109 % of control and the T/C [10] was 100 % of control. For the same compound, the T/C (dose: 200.0 mg/kg/injection, schedule: Q04DX003 (ip), vehicle: saline with Tween-80) was 109 % of control, the T/C [11] was 100 % of control and the T/C (dose: 400.0 mg/kg/injection, schedule: Q04DX003 (ip), vehicle: saline with Tween-80) was 109 % of control.

`CC(C)OC(=O)Oc1cccs1` was tested, and the T/C [14] was 100 % of control, the T/C [12] was 109 % of control and the T/C [13] was 100 % of control.

With `O=C1NN2CCN=C2c2ccccc21` the T/C (dose: 60.0 mg/kg/injection, schedule: Q01DX005 (ip), vehicle: saline with Tween-80) was 100 % of control, the T/C (dose: 120.0 mg/kg/injection, schedule: Q01DX005 (ip), vehicle: saline with Tween-80) was 104 % of control and the T/C (dose: 240.0 mg/kg/injection, schedule: Q01DX005 (ip), vehicle: saline with Tween-80) was 103 % of control.

With `C=Cc1cc[n+](CC(=O)c2ccc(-c3ccccc3)cc2)cc1` the T/C [3] was 103 % of control, the T/C [4] was 90 % of control and the T/C [5] was 92 % of control.

`CCCCCCCCCCSCC(N)CO` (stereo not given) was tested, and the T/C (dose: 6.25 mg/kg/injection, schedule: Q01DX009 (ip), vehicle: saline with Tween-80) was 93 % of control, the T/C [14] was 100 % of control and the T/C [12] was 100 % of control.

In the case of `CSc1cc(C)c(C#N)c(SC)n1`, the T/C [6] was 92 % of control, the T/C [7] was 89 % of control and the T/C [9] was 99 % of control.

For `c1ccc(-c2c[s+]cs2)cc1`, the T/C (dose: 6.25 mg/kg/injection, schedule: Q01DX009 (ip), vehicle: distilled water + Tween-80) was 111 % of control, the T/C (dose: 12.5 mg/kg/injection, schedule: Q01DX009 (ip), vehicle: distilled water + Tween-80) was 107 % of control and 114 % of control and the T/C (dose: 25.0 mg/kg/injection, schedule: Q01DX009 (ip), vehicle: distilled water + Tween-80) was 121 % of control and 123 % of control. For the same compound, the T/C (dose: 50.0 mg/kg/injection, schedule: Q01DX009 (ip), vehicle: distilled water + Tween-80) was 104 % of control and the T/C (dose: 100.0 mg/kg/injection, schedule: Q01DX009 (ip), vehicle: distilled water + Tween-80) was 114 % of control.

`N#Cc1cccc(C(N)=O)c1C(N)=O` was tested, and the T/C [6] was 104 % of control, the T/C [7] was 98 % of control and the T/C [9] was 95 % of control.

In the case of `CCC(C(=O)c1ccccc1)C1(C(=O)OC)NC(=S)NC(=O)C1C#N` (stereo not given), the T/C (dose: 60.0 mg/kg/injection, schedule: Q01DX005 (ip), vehicle: saline) was 95 % of control, the T/C (dose: 120.0 mg/kg/injection, schedule: Q01DX005 (ip), vehicle: saline) was 95 % of control and the T/C (dose: 240.0 mg/kg/injection, schedule: Q01DX005 (ip), vehicle: saline) was 100 % of control.

In the case of `O=c1c(CN(CCO)CCO)c(-c2ccccc2)sc2ccccc12`, the T/C (dose: 12.5 mg/kg/injection, schedule: Q04DX002 (ip), vehicle: saline with Tween-80) was 100 % of control, the T/C (dose: 25.0 mg/kg/injection, schedule: Q04DX002 (ip), vehicle: saline with Tween-80) was 100 % of control and the T/C (dose: 50.0 mg/kg/injection, schedule: Q04DX002 (ip), vehicle: saline with Tween-80) was 97 % of control. The T/C (dose: 100.0 mg/kg/injection, schedule: Q04DX002 (ip), vehicle: saline with Tween-80) was 91 % of control.

For `Nc1nc(=S)c2[nH]c(=S)n(C3OC(CO)C(O)C3O)c2[nH]1` (stereo not given), the T/C (dose: 25.0 mg/kg/injection, schedule: Q01DX005 (ip), vehicle: Klucel (hydroxypropylcellulose) (HPC)) was 100 % of control, the T/C [15] was 105 % of control and the T/C [16] was 103 % of control. For the same compound, the T/C [17] was 112 % of control.

`Cc1noc(/N=N/N(C)c2ccccc2)c1C` was tested, and the T/C [13] was 103 % of control and the T/C [8] was 96 % of control.

In the case of `N#[O+].O.O=N[O-].O=N[O-].[NH2-].[NH2-].[Ru+2]`, the T/C (dose: 12.5 mg/kg/injection, schedule: Q04DX003 (ip), vehicle: water) was 110 % of control, the T/C (dose: 25.0 mg/kg/injection, schedule: Q04DX003 (ip), vehicle: water) was 111 % of control and the T/C (dose: 50.0 mg/kg/injection, schedule: Q04DX003 (ip), vehicle: water) was 118 % of control. The T/C (dose: 100.0 mg/kg/injection, schedule: Q04DX003 (ip), vehicle: water) was 111 % of control and the T/C (dose: 200.0 mg/kg/injection, schedule: Q04DX003 (ip), vehicle: water) was 102 % of control.

In the case of `C=C(Cl)C(=NC(C)(C)C)Nc1c(Cl)cccc1Cl`, the T/C [15] was 98 % of control and 95 % of control, the T/C [16] was 100 % of control and the T/C [17] was 100 % of control and 90 % of control.

In the case of `COc1cc(C(O)(CCN2CCOCC2)c2ccc3c(c2)OCO3)cc(OC)c1OC` (stereo not given), the T/C [15] was 91 % of control and the T/C [16] was 87 % of control.

With `CC(C)c1ccc2nc3ccc(C(=O)NCCN(C)C)cn3c(=O)c2c1` the T/C [1] was 105 % of control and the T/C [2] was 101 % of control.

With `CSCc1ccc(Cl)cc1N` (tested in a mixture with another compound) the T/C [12] was 103 % of control, the T/C [13] was 106 % of control and the T/C [8] was 106 % of control.
